From ChEMBL document CHEMBL5335767, “Synthesis and study of new siderophore analog-ciprofloxacin conjugates with antibiotic activities against Pseudomonas aeruginosa and Burkholderia spp” (Eur J Med Chem, 2023)
Converted amounts (≈) assume the structure as drawn.

Assays:
[1] = system: Burkholderia pseudomallei; assay: Antibacterial activity against Burkholderia pseudomallei BPS2020IRBA005 under 1 uM FeCl3 medium after 48 hrs by CLSI protocol based microdilution method; type: functional
Pseudomonas aeruginosa [2] = assay: Antibacterial activity against Pseudomonas aeruginosa PAO1 under muller hinton medium by CLSI protocol based microdilution method; type: functional
[3] = system: Burkholderia thailandensis; assay: Antibacterial activity against Burkholderia thailandensis E264TS32C47 under succinate minimum medium by CLSI protocol based microdilution method; type: functional
[4] = system: Burkholderia pseudomallei; assay: Antibacterial activity against Burkholderia pseudomallei BPS2020IRBA002 under succinate minimum medium by CLSI protocol based microdilution method; type: functional
Pseudomonas aeruginosa [5] = assay: Antibacterial activity against Pseudomonas aeruginosa PAD07 under succinate minimum medium by CLSI protocol based microdilution method; type: functional
[6] = system: Burkholderia pseudomallei; assay: Antibacterial activity against Burkholderia pseudomallei BPS2020IRBA001 under succinate minimum medium by CLSI protocol based microdilution method; type: functional
[7] = system: Burkholderia thailandensis; assay: Antibacterial activity against Burkholderia thailandensis E264TS32C10 under succinate minimum medium by CLSI protocol based microdilution method; type: functional
Pseudomonas aeruginosa [8] = assay: Antibacterial activity against Pseudomonas aeruginosa PAD07 under muller hinton medium by CLSI protocol based microdilution method; type: functional
[9] = system: Burkholderia pseudomallei; assay: Antibacterial activity against Burkholderia pseudomallei K96243 under 1 uM FeCl3 medium by CLSI protocol based microdilution method; type: functional
[10] = system: Burkholderia thailandensis; assay: Antibacterial activity against Burkholderia thailandensis E264TS32C12 under succinate minimum medium by CLSI protocol based microdilution method; type: functional
[11] = system: Burkholderia pseudomallei; assay: Antibacterial activity against Burkholderia pseudomallei BPS2020IRBA004 under muller hinton medium by CLSI protocol based microdilution method; type: functional
[12] = system: Burkholderia thailandensis; assay: Antibacterial activity against Burkholderia thailandensis E264TS32C10 under muller hinton medium by CLSI protocol based microdilution method; type: functional
Pseudomonas aeruginosa [13] = assay: Antibacterial activity against Pseudomonas aeruginosa AM85 under succinate minimum medium by CLSI protocol based microdilution method; type: functional
[14] = system: Burkholderia thailandensis; assay: Antibacterial activity against Burkholderia thailandensis E264 under muller hinton medium by CLSI protocol based microdilution method; type: functional
[15] = system: Burkholderia thailandensis; assay: Antibacterial activity against Burkholderia thailandensis E264TS32C47 under muller hinton medium by CLSI protocol based microdilution method; type: functional
[16] = system: Burkholderia thailandensis; assay: Antibacterial activity against Burkholderia thailandensis E264 under 1 uM FeCl3 medium by CLSI protocol based microdilution method; type: functional
Pseudomonas aeruginosa [17] = assay: Antibacterial activity against Pseudomonas aeruginosa AM85 under 1 uM FeCl3 medium by CLSI protocol based microdilution method; type: functional
[18] = system: Burkholderia pseudomallei; assay: Antibacterial activity against Burkholderia pseudomallei BPS2020IRBA002 under 1 uM FeCl3 medium by CLSI protocol based microdilution method; type: functional
[19] = system: Burkholderia pseudomallei; assay: Antibacterial activity against Burkholderia pseudomallei BPS2020IRBA001 under muller hinton medium by CLSI protocol based microdilution method; type: functional
[20] = system: Burkholderia thailandensis; assay: Antibacterial activity against Burkholderia thailandensis E264TS32C12 under 1 uM FeCl3 medium by CLSI protocol based microdilution method; type: functional
[21] = system: Burkholderia thailandensis; assay: Antibacterial activity against Burkholderia thailandensis E264TS32C10 under 1 uM FeCl3 medium by CLSI protocol based microdilution method; type: functional
[22] = system: Burkholderia thailandensis; assay: Antibacterial activity against Burkholderia thailandensis E264TS32C12 under muller hinton medium by CLSI protocol based microdilution method; type: functional
[23] = system: Burkholderia pseudomallei; assay: Antibacterial activity against Burkholderia pseudomallei BPS2020IRBA003 under muller hinton medium by CLSI protocol based microdilution method; type: functional
[24] = system: Burkholderia pseudomallei; assay: Antibacterial activity against Burkholderia pseudomallei BPS2020IRBA005 under succinate minimum medium by CLSI protocol based microdilution method; type: functional
Pseudomonas aeruginosa [25] = assay: Antibacterial activity against Pseudomonas aeruginosa PAO1 under 1 uM FeCl3 medium by CLSI protocol based microdilution method; type: functional
[26] = system: Burkholderia thailandensis; assay: Antibacterial activity against Burkholderia thailandensis E264TS32C47 under 1 uM FeCl3 medium by CLSI protocol based microdilution method; type: functional
[27] = system: Burkholderia pseudomallei; assay: Antibacterial activity against Burkholderia pseudomallei BPS2020IRBA002 under muller hinton medium by CLSI protocol based microdilution method; type: functional
[28] = system: Burkholderia thailandensis; assay: Antibacterial activity against Burkholderia thailandensis E264 under succinate minimum medium by CLSI protocol based microdilution method; type: functional
Pseudomonas aeruginosa [29] = assay: Antibacterial activity against Pseudomonas aeruginosa PAO1 under succinate minimum medium by CLSI protocol based microdilution method; type: functional
Pseudomonas aeruginosa [30] = assay: Antibacterial activity against Pseudomonas aeruginosa AM85 under muller hinton medium by CLSI protocol based microdilution method; type: functional
Pseudomonas aeruginosa [31] = assay: Antibacterial activity against Pseudomonas aeruginosa PAD07 under 1 uM FeCl3 medium by CLSI protocol based microdilution method; type: functional
[32] = system: Burkholderia pseudomallei; assay: Antibacterial activity against Burkholderia pseudomallei K96243 under succinate minimum medium by CLSI protocol based microdilution method; type: functional
[33] = system: Burkholderia pseudomallei; assay: Antibacterial activity against Burkholderia pseudomallei BPS2020IRBA003 under 1 uM FeCl3 medium by CLSI protocol based microdilution method; type: functional
[34] = system: Burkholderia pseudomallei; assay: Antibacterial activity against Burkholderia pseudomallei BPS2020IRBA001 under 1 uM FeCl3 medium by CLSI protocol based microdilution method; type: functional
[35] = system: Burkholderia pseudomallei; assay: Antibacterial activity against Burkholderia pseudomallei K96243 under muller hinton medium by CLSI protocol based microdilution method; type: functional
[36] = Antibacterial activity against Burkholderia pseudomallei BPS2020IRBA005 under 1 uM FeCl3 medium by CLSI protocol based microdilution method; type: functional; conditions: Burkholderia thailandensis
[37] = system: Burkholderia pseudomallei; assay: Antibacterial activity against Burkholderia pseudomallei BPS2020IRBA003 under succinate minimum medium by CLSI protocol based microdilution method; type: functional
HepG2 = assay: Cytotoxicity against human HepG2 cells at 23 ug/ml after 48 hrs by CellTiter-Glo luminescent cell viability assay; type: toxicity, cell-based; conditions: hepg2, 48 h, dose 23 µg/ml
[38] = system: Burkholderia pseudomallei; assay: Antibacterial activity against Burkholderia pseudomallei BPS2020IRBA005 under muller hinton medium by CLSI protocol based microdilution method; type: functional

| Compound | MIC (Pseudomonas aeruginosa [2]) [µg/mL] | MIC [3] [µg/mL] | MIC [4] [µg/mL] | MIC (Pseudomonas aeruginosa [5]) [µg/mL] | MIC [6] [µg/mL] | MIC [7] [µg/mL] | MIC (Pseudomonas aeruginosa [8]) [µg/mL] | MIC [9] [µg/mL] | MIC [10] [µg/mL] | MIC [11] [µg/mL] | MIC [12] [µg/mL] | MIC (Pseudomonas aeruginosa [13]) [µg/mL] | MIC [14] [µg/mL] | MIC [15] [µg/mL] | MIC [16] [µg/mL] | MIC (Pseudomonas aeruginosa [17]) [µg/mL] | MIC [18] [µg/mL] | MIC [19] [µg/mL] | MIC [20] [µg/mL] | MIC [21] [µg/mL] | further results |
| --- | --- | --- | --- | --- | --- | --- | --- | --- | --- | --- | --- | --- | --- | --- | --- | --- | --- | --- | --- | --- | --- |
| CC(C)(O/N=C(\C(=O)N[C@@H]1C(=O)N2C(C(=O)[O-])=C(C[n+]3ccccc3)CS[C@H]12)c1csc(N)n1)C(=O)O [CEFTAZIDIME] | 1 (≈ 1.83 µM) | 4 (≈ 7.32 µM) | 64 (≈ 117 µM) | 0.25 (≈ 0.457 µM) | 2 (≈ 3.66 µM) | 2 (≈ 3.66 µM) | 1 (≈ 1.83 µM) | 8 (≈ 14.6 µM) | 8 (≈ 14.6 µM) | 8 (≈ 14.6 µM) | 1 (≈ 1.83 µM) | 0.25 (≈ 0.457 µM) | 4 (≈ 7.32 µM) | 4 (≈ 7.32 µM) | 4 (≈ 7.32 µM) | 4 (≈ 7.32 µM) | > 128 | 2 (≈ 3.66 µM) | 8 (≈ 14.6 µM) | 2 (≈ 3.66 µM) | MIC [1]: 8 µg/mL (≈ 14.6 µM); MIC [22]: 4 µg/mL (≈ 7.32 µM); MIC [23]: 2 µg/mL (≈ 3.66 µM); MIC [24]: 8 µg/mL (≈ 14.6 µM); MIC (Pseudomonas aeruginosa [25]): 1 µg/mL (≈ 1.83 µM); MIC [26]: 4 µg/mL (≈ 7.32 µM); MIC [27]: 128 µg/mL (≈ 234 µM); MIC [28]: 4 µg/mL (≈ 7.32 µM); MIC (Pseudomonas aeruginosa [29]): 0.25 µg/mL (≈ 0.457 µM); MIC (Pseudomonas aeruginosa [30]): 4 µg/mL (≈ 7.32 µM); MIC (Pseudomonas aeruginosa [31]): 1 µg/mL (≈ 1.83 µM); MIC [32]: 8 µg/mL (≈ 14.6 µM) |
| O=C(O)c1cn(C2CC2)c2cc(N3CCN(C(=O)c4cccc(O)c4O)CC3)c(F)cc2c1=O | 16 (≈ 34.2 µM) | 8 (≈ 17.1 µM) | 8 (≈ 17.1 µM) | 1 (≈ 2.14 µM) | 32 (≈ 68.5 µM) | 32 (≈ 68.5 µM) | 8 (≈ 17.1 µM) | 4 (≈ 8.56 µM) | 16 (≈ 34.2 µM) | 32 (≈ 68.5 µM) | 32 (≈ 68.5 µM) | 128 (≈ 274 µM) | 16 (≈ 34.2 µM) | 16 (≈ 34.2 µM) | 8 (≈ 17.1 µM) | > 128 | 16 (≈ 34.2 µM) | 32 (≈ 68.5 µM) | 16 (≈ 34.2 µM) | 32 (≈ 68.5 µM) | MIC [33]: 16 µg/mL (≈ 34.2 µM); MIC [34]: 32 µg/mL (≈ 68.5 µM); MIC [35]: 8 µg/mL (≈ 17.1 µM); MIC [36]: 8 µg/mL (≈ 17.1 µM); MIC [37]: 8 µg/mL (≈ 17.1 µM); MIC [22]: 32 µg/mL (≈ 68.5 µM); MIC [23]: 16 µg/mL (≈ 34.2 µM); MIC [24]: 8 µg/mL (≈ 17.1 µM); MIC (Pseudomonas aeruginosa [25]): 32 µg/mL (≈ 68.5 µM); Activity (HepG2): Non-Toxic; MIC [26]: 8 µg/mL (≈ 17.1 µM); MIC [27]: 16 µg/mL (≈ 34.2 µM); MIC [28]: 8 µg/mL (≈ 17.1 µM); MIC (Pseudomonas aeruginosa [29]): 32 µg/mL (≈ 68.5 µM); MIC (Pseudomonas aeruginosa [30]): > 128 µg/mL; MIC [38]: 64 µg/mL (≈ 137 µM); MIC (Pseudomonas aeruginosa [31]): 8 µg/mL (≈ 17.1 µM); MIC [32]: 2 µg/mL (≈ 4.28 µM) |
